{"source": "paper PMC9519396", "about": "“First thermostable CLIP-tag by rational design applied to an archaeal O^6-alkyl-guanine-DNA-alkyl-transferase” (Computational and Structural Biotechnology Journal, 2022)", "biological_target": "T1, SsOGT-MC^8 (Saccharolobus solfataricus, UniProt Q97VW7, G105N/G130P/K110E/M106T/R102A/S100A/S109D/S132L)", "T1 construct": "gene ogt; TSCLIP; synthetic gene with eight substitutions, Y90 kept; His6-tag, pHTP1, E. coli BL21 Rosetta2 (DE3), Ni-NTA purified; 8AES holds no ligand", "T1 sequence (Q97VW7 1-151 S100A/R102A/G105N/M106T/S109D/K110E/G130P/S132L)": "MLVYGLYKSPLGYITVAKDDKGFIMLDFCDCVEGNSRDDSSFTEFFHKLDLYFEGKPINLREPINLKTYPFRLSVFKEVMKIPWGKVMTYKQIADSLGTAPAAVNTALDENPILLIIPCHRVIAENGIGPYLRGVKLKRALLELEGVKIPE", "assay": "competitive labelling with BC-TMR, SDS-PAGE fluorescence gel imaging", "type": "biochemical", "from_the_text": "competitive labelling with BC-TMR, SDS-PAGE fluorescence gel imaging on SsOGT-MC^8", "data": [{"smiles": "[N-]=[N+]=NCCCCCC(=O)NCc1ccc(COc2nccc(N)n2)cc1", "note": "[BC-2]", "values": [{"measurement": "IC50", "result": "128 ± 31.1", "unit": "µM"}]}]}
